This is an account of results in ChEMBL document CHEMBL5727955, “Aminopyrazoles as janus kinase inhibitors” (2020).

Experiment [1] addresses Tyrosine-protein kinase JAK2 (Homo sapiens, UniProt O60674). The experiment can be described thus: (§1) Biochemical HTRF Enzyme Assay Protocol: The basic assay protocol is as follows: First, 250 nL of diluted compounds in DMSO were dispensed into the wells of a dry 384-well Black plate (GreinerFluotrac™ catalog number: 781076; Greiner Bio-One GmbH, Frickenhausen, Germany) using a Labcyte Echo® 555 acoustic dispenser ([…], Sunnyvale, Calif., USA). Subsequent reagent additions employed an Agilent™ Bravo™ liquid handling system (Aligent Technologies, Santa Clara, Calif., USA). […] After equilibration, 2 μL of 10×ATP in 1× assay buffer was added to initiate the kinase reaction and the plates were shaken and then incubated at ambient temperature for 120 minutes. At the end of the incubation, 20 μL of 2× stop buffer (Streptavidin-Dylight 650/100 mL catalogue number: 8454B (Invitrogen™/Life Technologies/ThermoFisher Scientific Inc., Waltham, Mass., USA); Europium-tagged pY20 antibody (PerkinElmer™ catalogue number: AD0067 (PerkinElmer™, Waltham, Mass., USA)); EDTA; HEPES; and Triton™ X-100 (Sigma-Aldrich, St. Louis, Mo., USA) was added to quench the reaction. In general terms: TR-FRET usually uses a lanthanide donor and a delayed reading to cut background.

Experiment [2] deals with Tyrosine-protein kinase JAK1 (Homo sapiens, UniProt P23458). Described as §1.
Sequence of Tyrosine-protein kinase JAK1 (P23458 whole entry): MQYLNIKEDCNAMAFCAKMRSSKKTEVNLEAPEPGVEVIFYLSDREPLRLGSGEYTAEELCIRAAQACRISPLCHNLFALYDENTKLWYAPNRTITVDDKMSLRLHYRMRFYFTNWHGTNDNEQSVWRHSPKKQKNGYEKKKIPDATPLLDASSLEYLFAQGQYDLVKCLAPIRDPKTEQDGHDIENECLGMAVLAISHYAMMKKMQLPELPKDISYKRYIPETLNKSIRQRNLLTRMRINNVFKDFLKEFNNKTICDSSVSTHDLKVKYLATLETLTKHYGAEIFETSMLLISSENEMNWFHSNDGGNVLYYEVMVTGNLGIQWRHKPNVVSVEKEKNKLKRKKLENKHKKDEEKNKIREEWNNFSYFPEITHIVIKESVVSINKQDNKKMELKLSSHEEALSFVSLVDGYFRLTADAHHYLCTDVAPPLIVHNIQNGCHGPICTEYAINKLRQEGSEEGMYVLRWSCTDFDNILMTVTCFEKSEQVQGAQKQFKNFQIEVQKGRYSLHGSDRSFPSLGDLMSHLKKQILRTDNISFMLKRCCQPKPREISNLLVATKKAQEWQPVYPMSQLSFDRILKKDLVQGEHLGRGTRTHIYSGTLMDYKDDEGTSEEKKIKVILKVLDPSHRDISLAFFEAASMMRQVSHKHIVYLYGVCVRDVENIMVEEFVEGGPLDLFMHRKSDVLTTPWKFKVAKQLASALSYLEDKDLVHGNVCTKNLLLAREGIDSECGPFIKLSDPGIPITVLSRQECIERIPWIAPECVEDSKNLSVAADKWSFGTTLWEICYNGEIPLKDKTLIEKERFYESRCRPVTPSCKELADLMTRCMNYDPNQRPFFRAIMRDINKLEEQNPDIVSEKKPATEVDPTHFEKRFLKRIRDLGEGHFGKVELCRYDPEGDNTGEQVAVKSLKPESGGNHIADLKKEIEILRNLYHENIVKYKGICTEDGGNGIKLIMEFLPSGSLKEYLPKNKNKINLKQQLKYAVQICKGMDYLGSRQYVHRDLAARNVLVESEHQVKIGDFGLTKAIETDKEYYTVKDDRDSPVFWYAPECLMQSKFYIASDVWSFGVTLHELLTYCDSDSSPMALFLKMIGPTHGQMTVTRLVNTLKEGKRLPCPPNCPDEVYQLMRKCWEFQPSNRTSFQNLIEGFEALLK

Sequence of Tyrosine-protein kinase JAK2 (O60674 whole entry): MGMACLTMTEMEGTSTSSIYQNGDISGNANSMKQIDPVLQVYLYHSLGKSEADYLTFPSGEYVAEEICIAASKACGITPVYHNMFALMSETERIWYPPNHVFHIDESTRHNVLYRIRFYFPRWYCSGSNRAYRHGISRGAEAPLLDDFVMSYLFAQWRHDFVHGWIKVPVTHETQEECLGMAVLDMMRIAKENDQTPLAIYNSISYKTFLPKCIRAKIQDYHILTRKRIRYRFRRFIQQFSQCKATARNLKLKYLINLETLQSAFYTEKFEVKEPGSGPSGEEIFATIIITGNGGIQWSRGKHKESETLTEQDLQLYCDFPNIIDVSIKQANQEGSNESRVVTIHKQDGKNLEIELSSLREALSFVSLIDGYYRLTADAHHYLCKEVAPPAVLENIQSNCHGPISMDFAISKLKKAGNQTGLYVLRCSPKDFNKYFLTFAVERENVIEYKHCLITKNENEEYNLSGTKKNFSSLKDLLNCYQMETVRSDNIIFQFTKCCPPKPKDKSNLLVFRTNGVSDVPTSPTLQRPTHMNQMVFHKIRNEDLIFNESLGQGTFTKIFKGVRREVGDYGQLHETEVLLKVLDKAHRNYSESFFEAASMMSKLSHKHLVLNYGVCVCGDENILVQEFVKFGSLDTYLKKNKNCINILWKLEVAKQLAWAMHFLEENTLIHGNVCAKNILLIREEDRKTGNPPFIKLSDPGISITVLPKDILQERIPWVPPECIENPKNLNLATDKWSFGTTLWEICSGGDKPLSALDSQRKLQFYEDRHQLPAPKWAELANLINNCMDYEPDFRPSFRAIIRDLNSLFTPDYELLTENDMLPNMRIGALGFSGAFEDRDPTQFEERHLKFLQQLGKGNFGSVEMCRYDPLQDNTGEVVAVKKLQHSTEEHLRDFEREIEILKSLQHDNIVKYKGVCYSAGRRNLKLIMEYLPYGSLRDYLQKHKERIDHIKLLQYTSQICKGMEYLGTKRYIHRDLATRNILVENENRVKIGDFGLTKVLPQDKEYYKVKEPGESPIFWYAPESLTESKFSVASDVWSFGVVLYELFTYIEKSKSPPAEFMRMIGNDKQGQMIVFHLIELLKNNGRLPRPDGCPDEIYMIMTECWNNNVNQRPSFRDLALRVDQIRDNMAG

As to `N#C[C@H]1CCOC[C@@H]1n1cc(C(N)=O)c(Nc2ccc(OC(F)(F)F)cc2)n1`, the results for the half-maximal inhibitory concentration (IC50) in experiment [1] and in experiment [2] were 1.35 nM and 0.16 nM, respectively.

`N#C[C@H]1CCOC[C@@H]1n1cc(C(N)=O)c(Nc2ccc(Cl)c(Cl)c2)n1`: it took 2.09 nM to reach half-maximal inhibition in experiment [2] (IC50).
